Results on 1 compound are retold here after patent US7943621B2, “Salts of piperazine compounds as D3/D2 antagonists” (Richter Gedeon Nyrt., priority 2008, dated 2011).

Data set [1] in a line: stability when stored in the solid state (long term and accelerated). In kind it is physicochemical.
A short description of data set [2]: thermal stability by thermogravimetric (TG) and DSC analysis. In kind it is physicochemical. The settings on record: solvent-free anhydrous form, 10° C./min, N2. As for the experimental part:
The characterization of trans 4-{2-[4-(2,3-dichlorophenyl)-piperazine-1-yl]-ethyl}-N,N-dimethylcarbamoyl-cyclohexylamine monohydrochloride was carried out by thermogravimetric (TG), differential scanning […] (DSC), infrared spectroscopic (FT-IR), Raman spectroscopic (FT-Raman) and powder X-ray diffraction (PXRD) solid phase analytical methods.

Counter-ions that a name gives are not always drawn.

As to `CN(C)C(=O)NC1CCC(CCN2CCN(c3cccc(Cl)c3Cl)CC2)CC1` (stereo not drawn) [monohydrochloride, Trans 4-{2-[4-(2,3-dichlorophenyl)-piperazine-1-yl]-ethyl}-N,N-dimethylcarbamoyl-cyclohexylamine monohydrochloride], the long term stability in data set [1] (25±2° C./60±5% RH) came to 48 months. The compound further came in with an accelerated stability in data set [1] (40±2° C./75±5% RH) of 6 months. Further, the “satisfactory thermal stability up to” value in data set [2] is “about 200 °C”.
